The record followed here is patent US4871744A, “Certain 2,3-dihydro-indole-1-carboxamido-N-[8-azabicyclo(3.2.1)octan-3-yl]d e” (priority 1988, dated 1989).

Structures are written as SMILES. Where a name gives a salt, the structure may show the parent alone.

The first experiment concerns von Bezold-Jarisch reflex evoked by 5-HT. Nature of the experiment: Antagonism of the von Bezold-Jarisch reflex evoked by 5-HT in the anaesthetised rat. In kind it is in vivo. The settings on record: Rattus norvegicus, iv; urethane-anaesthetised male rats; 5-HT-evoked changes in heart rate; 5-HT usually 6 μg/kg i.v.; read-out: ED50 (concentration required to reduce the 5HT-evoked response to 50% of the control response). The method, then:
Antagonism of the von Bezold-Jarisch reflex
The compounds were evaluated for antagonism of the von Bezold-Jarisch reflex evoked by 5-HT in the anaesthetised rat according to the following method:
Pharmacol. 2, 229-245 (1980). A submaximal dose of 5-HT (usually 6 μg/kg) was given repeatedly by the intravenous route and changes in heart rate quantified. Compounds were given intravenously and the concentration required to reduce the 5HT-evoked response to 50% of the control response (ED50) was then determined.
`CN1[C@@H]2CCC[C@H]1C[C@@H](NC(=O)N1CCc3ccccc31)C2` [Example 1, endo-N-(9-Methyl-9-azabicyclo[3.3.1]non-3-yl)-2,3-dihydroindole-1-carboxamide]: the ED50 amounted to 12.5 µg/kg.

For `CN1[C@@H]2CC[C@H]1C[C@@H](NC(=O)N1CCc3ccccc31)C2` [Example 2, endo-N-(8-Methyl-8-azabicyclo[3.2.1]oct-3-yl)-2,3-dihydroindole-1-carboxamide], the ED50 worked out at 1.4 µg/kg.

With `CN1[C@@H]2CC[C@H]1C[C@@H](OC(=O)N1CCc3ccccc31)C2` [Example 3, endo(8-Methyl-8-azabicyclo[3.2.1]oct-3-yl)-2,3-dihydroindole carboxylic acid ester], the ED50 amounted to 5 µg/kg.

With `CC1CN(C(=O)N[C@H]2C[C@H]3CC[C@@H](C2)N3C)c2ccccc21` (stereo partly drawn) [Example 4, endo-N-(8-Methyl-8-azabicyclo[3.2.1]oct-3-yl)-2,3-dihydro-3-methylindole-1-carboxamide hydrochloride], the ED50 worked out at 3 µg/kg.

With `CN1[C@@H]2CC[C@H]1C[C@@H](NC(=O)N1CC(C)(C)c3ccccc31)C2` [Example 5, endo-N-(8-Methyl-8-azabicyclo[3.2.1]oct-3-yl)-2,3-dihydro-3,3-dimethylindole-1-carboxamide], the ED50 was determined as 0.58 µg/kg.

As for `Cc1cn(C(=O)N[C@H]2C[C@H]3CC[C@@H](C2)N3C)c2ccccc12` [Example 6, endo-N-(8-Methyl-8-azabicyclo[3.2.1]oct-3-yl)-3-methylindole-1-carboxamide hydrochloride], the ED50 is 1.6 µg/kg.

Regarding `CCN1[C@@H]2CC[C@H]1C[C@@H](NC(=O)N1CCc3ccccc31)C2` [Example 7, endo-N-(8-Ethyl-8-azabicyclo[3.2.1]oct-3-yl)-2,3-dihydroindole-1-carboxamide], the ED50 was over 10 µg/kg.

Take `CN1[C@@H]2CC[C@H]1C[C@@H](NC(=O)N1CCc3cc(F)ccc31)C2` [Example 8, endo-N-(8-Methyl-8-azabicyclo[3.2.1]oct-3-yl)-5-fluoro-2,3-dihydroindole-1-carboxamide hydrochloride]: the ED50 came out at 17 µg/kg.

Take `CN1[C@@H]2CC[C@H]1C[C@@H](NC(=O)N1CCc3cc(Cl)ccc31)C2` [Example 9, endo-N-(8-Methyl-8-azabicyclo[3.2.1]oct-3-yl)-2,3-dihydro-5-chloroindole-1-carboxamide]: the ED50 was over 10 µg/kg.

With `COc1ccc2c(c1)CCN2C(=O)N[C@H]1C[C@H]2CC[C@@H](C1)N2C` [Example 10, endo-N-(8-Methyl-8-azabicyclo[3.2.1]oct-3-yl)2,3-dihydro-5-methoxyindole-1-carboxamide], the ED50 is 7 µg/kg.

In the case of `CN1[C@@H]2CC[C@H]1C[C@@H](NC(=O)n1ccc3ccccc31)C2` [Example 11, endo-N-(8-Methyl-8-azabicyclo[3.2.1]oct-3-yl)indole-1-carboxamide hydrochloride], the ED50 came out at 7.7 µg/kg.

For `Cl.O=C(NC1CN2CCC1CC2)N1CCc2ccccc21` (stereo not shown) [Example 12, N-(1-Azabicyclo[2.2.2]oct-3-yl)2,3-dihydroindole-1-carboxamide hydrochloride], the ED50 was determined as 4.4 µg/kg.

As to `CCC1CN(C(=O)N[C@H]2C[C@H]3CC[C@@H](C2)N3C)c2ccccc21` (stereo partly drawn) [Example 14, endo-N-(8-Methyl-8-azabicyclo[3.2.1]oct-3-yl)-2,3-dihydro-3-ethylindole-1-carboxamide hydrochloride], the ED50 was determined as 1 µg/kg.

Turning to `CCc1cn(C(=O)N[C@H]2C[C@H]3CC[C@@H](C2)N3C)c2ccccc12` [Example 15, endo-N-(8-Methyl-8-azabicyclo[3.2.1]-oct-3-yl)-3-ethylindole-1-carboxamide hydrochloride], the ED50 is 2 µg/kg.

Turning to `CN1[C@@H]2CC[C@H]1C[C@@H](NC(=O)N1CCc3cc([N+](=O)[O-])ccc31)C2` [Example 16, endo-N-(8-Methyl-8-azabicyclo[3.2.1]oct-3-yl)-2,3-dihydro-5-nitroindole-1-carboxamide], the ED50 is over 10 µg/kg.

As to `CN1[C@@H]2CC[C@H]1C[C@@H](NC(=O)N1CCc3ccc([N+](=O)[O-])cc31)C2` [Example 17, endo-N-(8-Methyl-8-azabicyclo[3.2.1]oct-3-yl)-2,3-dihydro-6-nitroindole-1-carboxamide hydrochloride], the ED50 was over 10 µg/kg.

With `CC1(C)CN(C(=O)NC2CN3CCC2CC3)c2ccccc21` (stereo not shown) [Example 18, N-(1-Azabicyclo[2.2.2]oct-3-yl)2,3-dihydro-3,3-dimethylindole-1-carboxamidehydrochloride], the ED50 amounted to 5.3 µg/kg.

Turning to `CC1Cc2ccccc2N1C(=O)N[C@H]1C[C@H]2CC[C@@H](C1)N2C` (stereo partly drawn) [Example 19, (endo)-N-(8-Methyl-8-azabicyclo[3.2.1]oct-3-yl)-2,3-dihydro-2-methylindole-1-carboxamide hydrochloride], the ED50 amounted to 0.79 µg/kg.

`CC1c2ccccc2N(C(=O)N[C@H]2C[C@H]3CC[C@@H](C2)N3C)C1C` (stereo partly drawn) [Example 20, (endo)-N-(8-Methyl-8-azabicyclo[3.2.1]oct-3-yl)-2,3-dihydro-2,3-dimethylindole-1-carboxamide]: the ED50 is 0.53 µg/kg.

`CC1N(C(=O)N[C@H]2C[C@H]3CC[C@@H](C2)N3C)c2ccccc2C1(C)C` (stereo partly drawn) [Example 21, (endo)-N-(8-Methyl-8-azabicyclo[3.2.1]oct-3-yl)-2,3-dihydro-2,3,3-trimethylindole-1-carboxamide hydrochloride]: the ED50 came to 1.4 µg/kg.

For the molecule `CC(C)C1CN(C(=O)N[C@H]2C[C@H]3CC[C@@H](C2)N3C)c2ccccc21` (stereo partly drawn) [Example 22, (endo)-N-(8-Methyl-8-azabicyclo[3.2.1]oct-3-yl)-2,3-dihydro-3-isopropylindole-1-carboxamide hydrochloride], the ED50 was found to be 0.56 µg/kg.

The experiment is the same for the next values; noted with them: i.v.; urethane-anaesthetised male rats; 5-HT-evoked changes in heart rate; 5-HT usually 6 μg/kg i.v.
`O=C(OC1CN2CCC1CC2)N1CCc2ccccc21` (stereo not shown) [Example 13, N-(1-Azabicyclo[2.2.2]oct-3-yl)-2,3-dihydroindole-1-carboxylic acid ester]: the “ED50 (concentration required to reduce the 5HT-evoked response to 50% of the control response)” value came to 3.9 µg/kg.
